Paper PMC7143421 (Marine Drugs, 2020)
Square brackets hold non-standard residues; d marks the D form. Peptide text beside a SMILES is read from it. Hyp = O=C(O)[C@@H]1C[C@@H](O)CN1

How the values were obtained:
[1] = biological target: T1, human NR2B (Homo sapiens, UniProt Q13224)
[2] = biological target: T1, human NR2B; test: cell-based
[3] = biological target: NR2A (Homo sapiens, UniProt Q12879); type: cell-based
NR2A, sequence (Q12879 whole entry, looked up): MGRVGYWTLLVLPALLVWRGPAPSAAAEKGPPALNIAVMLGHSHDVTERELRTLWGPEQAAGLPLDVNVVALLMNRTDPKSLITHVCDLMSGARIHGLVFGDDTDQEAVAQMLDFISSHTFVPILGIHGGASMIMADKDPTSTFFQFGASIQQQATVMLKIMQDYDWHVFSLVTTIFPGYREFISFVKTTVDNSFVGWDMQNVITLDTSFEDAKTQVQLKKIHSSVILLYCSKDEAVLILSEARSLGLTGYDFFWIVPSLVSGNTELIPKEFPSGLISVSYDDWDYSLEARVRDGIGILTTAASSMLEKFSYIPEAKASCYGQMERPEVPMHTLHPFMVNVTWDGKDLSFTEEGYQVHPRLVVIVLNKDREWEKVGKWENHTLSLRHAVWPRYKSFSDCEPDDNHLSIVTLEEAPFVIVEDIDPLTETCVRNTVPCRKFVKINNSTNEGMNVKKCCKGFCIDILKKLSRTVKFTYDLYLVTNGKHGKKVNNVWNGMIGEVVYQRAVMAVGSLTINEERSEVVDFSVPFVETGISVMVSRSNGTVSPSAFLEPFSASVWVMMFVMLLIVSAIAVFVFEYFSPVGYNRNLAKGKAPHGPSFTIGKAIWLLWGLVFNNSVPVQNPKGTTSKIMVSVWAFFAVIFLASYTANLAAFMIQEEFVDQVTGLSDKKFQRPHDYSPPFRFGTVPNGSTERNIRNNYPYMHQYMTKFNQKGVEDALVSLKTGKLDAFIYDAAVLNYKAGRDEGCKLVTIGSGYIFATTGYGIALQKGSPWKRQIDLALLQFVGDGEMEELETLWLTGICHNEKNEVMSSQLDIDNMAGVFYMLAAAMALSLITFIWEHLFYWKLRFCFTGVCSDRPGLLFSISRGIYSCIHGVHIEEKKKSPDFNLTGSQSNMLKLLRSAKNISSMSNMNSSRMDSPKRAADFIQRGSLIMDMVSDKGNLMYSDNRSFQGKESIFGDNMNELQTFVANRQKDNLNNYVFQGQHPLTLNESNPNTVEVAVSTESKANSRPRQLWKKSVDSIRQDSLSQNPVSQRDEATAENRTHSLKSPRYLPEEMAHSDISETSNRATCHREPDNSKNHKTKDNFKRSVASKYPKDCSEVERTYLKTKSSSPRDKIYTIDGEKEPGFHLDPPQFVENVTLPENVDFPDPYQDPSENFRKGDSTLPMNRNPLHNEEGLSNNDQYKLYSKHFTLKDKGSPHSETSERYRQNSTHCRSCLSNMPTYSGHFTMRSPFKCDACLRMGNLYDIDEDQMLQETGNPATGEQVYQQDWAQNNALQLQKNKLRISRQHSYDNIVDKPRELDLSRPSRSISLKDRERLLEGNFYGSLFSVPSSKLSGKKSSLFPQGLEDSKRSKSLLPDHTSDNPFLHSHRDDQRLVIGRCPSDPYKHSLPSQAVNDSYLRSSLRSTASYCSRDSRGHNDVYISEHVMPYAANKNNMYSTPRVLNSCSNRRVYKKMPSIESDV

T1 sequence (Q13224 whole entry, looked up): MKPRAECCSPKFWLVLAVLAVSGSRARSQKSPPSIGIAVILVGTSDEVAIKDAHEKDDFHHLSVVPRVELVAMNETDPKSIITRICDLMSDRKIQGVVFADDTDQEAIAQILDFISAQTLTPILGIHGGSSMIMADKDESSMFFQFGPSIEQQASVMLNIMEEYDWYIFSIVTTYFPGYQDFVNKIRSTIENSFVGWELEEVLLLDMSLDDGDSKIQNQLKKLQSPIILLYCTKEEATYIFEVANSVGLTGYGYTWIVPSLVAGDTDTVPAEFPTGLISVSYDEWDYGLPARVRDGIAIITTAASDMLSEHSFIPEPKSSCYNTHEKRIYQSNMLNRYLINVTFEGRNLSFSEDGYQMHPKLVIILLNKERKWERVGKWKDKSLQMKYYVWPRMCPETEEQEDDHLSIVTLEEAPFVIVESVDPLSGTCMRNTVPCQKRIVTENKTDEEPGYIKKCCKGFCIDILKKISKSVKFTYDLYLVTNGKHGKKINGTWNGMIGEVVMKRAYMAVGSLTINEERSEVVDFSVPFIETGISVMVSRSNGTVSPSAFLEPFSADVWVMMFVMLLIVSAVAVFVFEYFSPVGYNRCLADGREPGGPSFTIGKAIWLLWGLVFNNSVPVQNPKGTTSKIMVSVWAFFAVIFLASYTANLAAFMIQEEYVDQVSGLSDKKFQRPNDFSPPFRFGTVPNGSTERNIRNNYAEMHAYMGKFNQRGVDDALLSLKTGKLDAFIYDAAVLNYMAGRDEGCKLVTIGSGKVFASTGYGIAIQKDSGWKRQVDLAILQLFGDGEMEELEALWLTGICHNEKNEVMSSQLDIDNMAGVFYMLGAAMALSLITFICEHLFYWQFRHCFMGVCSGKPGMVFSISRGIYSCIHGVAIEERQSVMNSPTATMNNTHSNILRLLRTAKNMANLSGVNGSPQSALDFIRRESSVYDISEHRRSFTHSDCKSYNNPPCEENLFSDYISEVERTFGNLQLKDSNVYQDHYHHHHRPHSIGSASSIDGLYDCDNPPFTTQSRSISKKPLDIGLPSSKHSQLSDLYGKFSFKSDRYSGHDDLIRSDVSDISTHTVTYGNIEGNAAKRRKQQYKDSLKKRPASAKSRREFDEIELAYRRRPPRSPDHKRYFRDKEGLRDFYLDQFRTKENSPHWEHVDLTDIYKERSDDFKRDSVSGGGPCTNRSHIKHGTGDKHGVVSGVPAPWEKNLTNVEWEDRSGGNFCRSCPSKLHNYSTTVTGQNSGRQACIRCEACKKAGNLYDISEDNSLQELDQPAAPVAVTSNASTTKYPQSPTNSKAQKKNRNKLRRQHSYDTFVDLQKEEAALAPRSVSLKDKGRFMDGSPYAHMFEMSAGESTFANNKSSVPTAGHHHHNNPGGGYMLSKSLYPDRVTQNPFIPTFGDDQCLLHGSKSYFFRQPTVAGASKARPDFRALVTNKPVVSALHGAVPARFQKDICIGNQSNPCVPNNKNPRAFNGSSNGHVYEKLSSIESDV

CC(C)C[C@H](NC(=O)[C@H](Cc1ccc(O)cc1)NC(=O)[C@H](Cc1ccc(O)cc1)NC(=O)[C@@H](N)CC(N)=O)C(=O)N[C@@H](Cc1ccc(O)cc1)C(=O)N1C[C@H](O)C[C@H]1C(=O)N[C@@H](C)C(=O)N[C@@H](CCCNC(=N)N)C(=O)N1C[C@H](O)C[C@H]1C(=O)N[C@@H](CCC(=O)O)C(=O)N[C@@H](CC(N)=O)C(=O)N[C@@H](CO)C(=O)N[C@H](Cc1c[nH]c2ccccc12)C(=O)N[C@@H](Cc1c[nH]c2ccccc12)C(=O)N[C@H](C(=O)O)[C@@H](C)O [conotoxin-Ac1] (H-NYYLY[Hyp]AR[Hyp]ENS[dW]WT-OH)
The Inhibition of Currents (%) NR2B [1]: 51.69% | IC50 [2]: 8.22 ± 0.022 µM | The Inhibition of Currents (%) NR2A [3]: 7.22%
